From paper PMC7649969, “Pyrazolyl-pyrimidones inhibit the function of human solute carrier protein SLC11A2 (hDMT1) by metal chelation” (RSC Medicinal Chemistry, 2020)

Experiments:
hDMT1 = molecular target: T1, hDMT1 (Homo sapiens, UniProt P49281); assay: 55Fe2+ uptake by HEK293T cells transiently transfected with hDMT1; format: cell-based; design: DsRED; expressed in transfected cells; host or cells: HEK293T (ATCC CRL-3216), transient transfection with Lipofectamine 2000; settings: for IC50: HEK293T transiently transfected with hDMT1, 55Fe2+ 1 μM, pH 5.5; for inhibition of 55Fe2+ uptake by hDMT1: compound 10 μM, 55Fe2+ 1 μM, pH 5.5, HEK293T
T1 sequence (P49281 1-568): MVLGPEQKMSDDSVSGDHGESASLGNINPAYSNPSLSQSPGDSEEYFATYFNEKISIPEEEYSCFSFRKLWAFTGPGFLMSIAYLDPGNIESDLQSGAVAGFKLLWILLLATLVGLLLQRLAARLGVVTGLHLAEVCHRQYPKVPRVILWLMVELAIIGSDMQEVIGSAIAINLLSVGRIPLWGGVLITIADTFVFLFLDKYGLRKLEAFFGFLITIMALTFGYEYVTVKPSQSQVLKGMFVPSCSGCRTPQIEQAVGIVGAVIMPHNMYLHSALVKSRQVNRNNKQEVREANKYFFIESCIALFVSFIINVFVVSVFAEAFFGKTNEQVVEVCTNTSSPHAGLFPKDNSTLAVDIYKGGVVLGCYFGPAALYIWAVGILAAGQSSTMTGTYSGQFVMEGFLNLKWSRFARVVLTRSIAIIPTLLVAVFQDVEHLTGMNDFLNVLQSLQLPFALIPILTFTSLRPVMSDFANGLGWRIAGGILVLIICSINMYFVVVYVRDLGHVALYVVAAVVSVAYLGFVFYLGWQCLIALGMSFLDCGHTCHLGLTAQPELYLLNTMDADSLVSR
Text: Complex formation with Fe^2+ should result in non-selective inhibition of different metal transporters. To test this hypothesis, we investigated whether human SLC39A8 (hZIP8), a transporter of Zn^2+ and Fe^2+ unrelated to SLC11 family, might also be inhibited by our hDMT1 inhibitors. Both SLCs can be tested by inhibition of radioactive iron uptake into HEK293 cells expressing the transporter, at pH 5.5 for hDMT1 and at pH 7.4 for hZIP8.
Fig. 5 Cross reactivity of hDMT1 inhibitors over the functional activity of the divalent metal transporter hZIP8. (a) ^55Fe^2+ uptake (1 μM) by HEK293T cells (source: American Type Culture Collection, catalog no. CRL-3216) transiently transfected with the empty vector (Ev), hDMT1 or hZIP8. Uptake assay was performed at the optimal pH for the functional activity of each transporter (pH 5.5 and pH 7.4 respectively). The indicated compounds (10 μM) were pre-incubated for 5 min, and then, for 15 min with both compound and ^55Fe^2+. Measured ^55Fe^2+ was corrected by subtracting the background iron uptake measured in non-transfected cells. The data was normalized to the Fe^2+ uptake measured in the presence of DMSO (0.1%) and represented as mean ± SD (N = 5–16; obtained from 2 independent experiments). IC50 determination for pyrazolyl-pyrimidone 13 (b) and bipyridine (c) in HEK293T cells transiently transfected with hDMT1 (left panels) or hZIP8 (right panels). ^55Fe^2+ uptake (1 μM) was measured in the presence of the indicated compound concentration ranges, and the measurements were corrected by subtracting the background iron uptake measured in non-transfected cells. IC50 values were calculated by fitting the data to a sigmoidal 4-parameter equation. Representative experiments are depicted, while IC50 values were calculated as mean ± SD of 3 different experiments.
Chemicals and reagents were purchased from Merck, except where indicated otherwise.
Cell Culture. Cellular experiments where conducted either with a HEK293 cell line (ATCC) stably expressing DsRED-hDMT1 plasmid or HEK293T cells (ATCC) transiently transfected with DsRED-hZIP8 or DsRED-hDMT1 plasmids. The cell line stably expressing hDMT1 was generated as described in previous works1,2. In both cases, cells were cultured in Dulbecco´s modified Eagle´s medium (DMEM) supplemented with 10 % foetal bovine serum (FBS), 10 mM HEPES and 1 mM Na-pyruvate under standard cell culture conditions (37 °C, 95 % humidity and air containing 5 % CO2). When culturing the hDMT1 overexpressing cell line, to maintain stable the expression of the exogenous plasmid, culture media was also supplemented with […] geneticin (Life Technologies). […]
Radiolabelled iron uptake assay. Cells were seeded in clear bottom, white-well, poly-D-lysine coated 96-well plates (Corning). HEK293 cells stably over-expressing hDMT1 were seeded 24 hours before the experiment at a density of 50,000 cells/well. HEK293T cells were seeded at 30,000 cells/well 48 hours before the experiment, and 24 hours after were transfected […]
using Lipofectamine 2000 (Life technologies) as described in the manufacturer’s protocol.
Before the uptake assay, culture media was aspirated and the cells were washed with the uptake solution (140 mM NaCl, 2.5 mM KCl, 1 mM CaCl2, 1 mM MgCl2, 1.2 mM K2HPO4, 10 mM glucose, 5 mM HEPES, 5 mM MES, pH 7.4). To determine the iron uptake, the cells were incubated for 15 min at room temperature (RT) with uptake solution (pH 5.5) supplemented with 100 µM Ascorbic acid, and the indicated amount of non-radioactive Ferrous iron (Fe2+) and radiolabelled 55Fe2+ (American Radiolabelled) (0.5 µCi/mL). To stop the uptake process, the solution containing the radiotracer was removed and cells were washed with ice-cold uptake solution (pH 7.5). To determine the iron accumulated within the cells during the incubation time, the scintillation cocktail Mycrosinth 20 (PerkinElmer) was added to each well, and the cells were incubated during 1 hour at RT under constant agitation. […]

hDMT1 (SLC11A2) = molecular target: T2, hDMT1 (SLC11A2) (Homo sapiens, UniProt P49281); assay: radioactive iron uptake assay in HEK293 cells stably overexpressing hDMT1; format: cell-based; settings: for IC50: radioactive iron 1 μM, 15 min incubation, extracellular pH 5.5, HEK293 stably overexpressing hDMT1; for mode of inhibition: 55Fe2+ uptake kinetics; for Ki: [Fe^2+] → 0, Dixon plot analysis, read-out: inhibition constant Ki; for Ligand efficiency: from IC50 of radioactive iron uptake in HEK293-hDMT1; for inhibition constant Kii: saturating iron, 1/Vmax vs [I]
T2 construct: DsRED; expressed in transfected cells
T2 sequence (P49281 1-568): T1 sequence (P49281 1-568)

Row | Compound | IC50 (hDMT1) | inhibition of 55Fe2+ uptake by hDMT1 (hDMT1) | IC50 (hDMT1 (SLC11A2)) | mode of inhibition (hDMT1 (SLC11A2)) | Ki (hDMT1 (SLC11A2)) | Ligand efficiency (hDMT1 (SLC11A2)) | improvement of IC50 over initial inhibitor 5 (hDMT1 (SLC11A2); radioactive iron uptake) | inhibition constant Kii (hDMT1 (SLC11A2)) | potency weaker than originally reported value based on a calcein assay (hDMT1 (SLC11A2); radioactive iron uptake vs reported calcein assay)
1 | c1ccc(-c2ccccn2)nc1 [bipyridine] | ~6500 nM | inhibited both transporters | – | – | – | – | – | – | –
2 | Cc1cc(O)nc(-n2nc(C)cc2C)n1 [Compound 5] | – | inhibited both transporters | 13100 ± 700 nM | – | – | – | – | – | –
3 | Cc1cc(=O)[nH]c(-n2nc3c(c2C)CCCC3)n1 [Compound 13] | ~1100 nM | inhibited both transporters | 1100 ± 10 nM | non-competitive inhibitor | 2000 nM | 0.45 | 10 fold | 1.7 µM | –
4 | N=C(N)SCc1cccc2c1oc1c(CSC(=N)N)cccc12 [Compound 1, reference compound] | – | only inhibited hDMT1 | 1760 ± 60 nM | competitive inhibition | 1400 nM | 0.35 | – | 15.6 µM | 5 fold
5 | Cc1nn(-c2ccccn2)c(O)c1C(=O)Nc1cccc(C(F)(F)F)c1 [Compound 3, reference compound] | – | inhibited both transporters | – | – | – | – | – | – | –
